Measurements published in patent US20090203609A1, “Use of IL-1 inhibitors for treating IL-1 mediated diseases” (AMGEN INC., priority 1996, published 2009).

Experiments:
[1] = system: adjuvant arthritic rats; experiment: Adjuvant arthritis model, Example 2 (rhuIL-1ra IV infusion, oral methotrexate); type: in vivo, Male Lewis rats; details: rhuIL-1ra 5 mg/kg/hr continuous IV infusion from day 8; methotrexate 0.06 mg/kg oral days 0-14; termination day 15
Procedure: (§1) Male Lewis rats (Charles River, Portage, Mich.) (5-7/group) weighing at least 200 g were cannulated with jugular catheters and allowed to recover for several days. They were then placed in infusion cages and acclimated for at least one week prior to initiating adjuvant injections. On day-0, all rats were injected with 100 μl of Freunds Complete Adjuvant (Sigma Chemical Co., St. […] Body weights were taken on day 0 and every other day from day 8 to termination on day 15. Caliper measurements and clinical scoring were done on day 8 and every other day until termination. At this time the animals' body, paw and spleen weights were determined.

[2] = system: EAE model; experiment: EAE model, second Example 4 (integrated clinical score, weight gain); type: in vivo, Female Strain 13 guinea pigs
[3] = system: adjuvant arthritic rats; experiment: Adjuvant arthritis model, Example 1 (rhuIL-1ra IV infusion, oral methotrexate); type: in vivo, Male Lewis rats; details: rhuIL-1ra 5 mg/kg/hr continuous IV infusion from day 8; methotrexate 0.06 mg/kg oral days 0-14; termination day 15
Procedure: Male Lewis rats (Charles River, Portage, Mich.) (5 per group) weighing at least 200 g were cannulated with jugular catheters and allowed to recover for several days. They were then placed in infusion cages and acclimated for a week prior to initiating adjuvant injections. On day 0, all treated rats were injected with 100 μl of Freunds Complete Adjuvant (Sigma Chemical Co., St. […] On day 8, treatment with E. coli-derived human recombinant IL-1 receptor antagonist (prepared generally in accordance with the teachings of U.S. Pat. […] Body weights were taken on day 0 and every other day from day 8 to termination on day 15. Caliper measurements and clinical scoring were done on day 8 and every other day until termination. At this time the animals' body, paw and spleen weights were determined.

[4] = system: adjuvant arthritic rats; experiment: Adjuvant arthritis model, first Example 4 (rhuIL-1ra 5 mg/kg/hr infusion, methotrexate dose range); type: in vivo, Male Lewis rats; details: rhuIL-1ra alone
Procedure: as §1, with “250-300” for “200”, “in the subcutis of the dorsal back” for “with jugular catheters”, “4 days” for “one week”

[5] = system: adjuvant arthritic rats; experiment: Adjuvant arthritis model, Example 3 (rhuIL-1ra subcutaneous infusion, methotrexate dose range); type: in vivo, Male Lewis rats; design: inhibition of final paw weight: dose or concentration left out as unconfirmed; details: rhuIL-1ra alone
Procedure: as §1, with “250-300” for “200”, “in the subcutis of the dorsal back” for “with jugular catheters”, “4 days” for “one week”

With “rhuIL-1ra: E. coli-derived human recombinant IL-1 receptor antagonist (SEQ ID NO:2), in citrate buffer formulation” the “inhibition of body weight change” value [1] was “no inhibition”, the “inhibition of paw swelling” value [1] was 22% and the inhibition of splenomegaly [1] was 24%. The “attenuation of clinical symptoms/signs (integrated clinical score)” value ([2]; rhuIL-1ra 10 mg/kg s.c. 3x a day from day 0, alone or with r-metIFN-con1 0.03 mg/kg s.c.) was 49%, the “attenuation of clinical symptoms/signs (integrated clinical score)” value ([2]; rhuIL-1ra 100 mg/kg s.c. 3x a day from day 0, alone or with r-metIFN-con1 0.03 mg/kg s.c.) was 53% and the “inhibition of arthritis (paw swelling)” value [3] was 57%. For the same substance, the “inhibition of body weight change” value [3] was 25%, the “inhibition of splenomegaly (spleen weight)” value [3] was “no significant benefit” and the “inhibition of bone resorption, histologic evaluation of ankle joints” value [4] was 53%. The “inhibition of inflammation, histologic evaluation of ankle joints” value [4] was 8%, the “inhibition of swelling, ankle joint diameter over time (area under the curve)” value ([4]; 5 mg/kg/hr infusion) was 6% and the “inhibition of final paw weight” value ([4]; continuous subcutaneous infusion 5 mg/kg/hr, days 8-15) was 6%. The “inhibition of bone resorption, histologic evaluation of ankle joints” value [5] was 53%, the “inhibition of inflammation, histologic evaluation of ankle joints” value [5] was 8% and the “inhibition of swelling, ankle joint diameter over time (area under the curve)” value ([5]; 5 mg/ml/hr sc infusion) was 6%. The “inhibition of final paw weight” value ([5]; continuous subcutaneous infusion, days 8-15) was 6%.
